Measured values from patent US20150051212A1, “Compositions And Methods For Inhibiting Drusen” (Regenerative Research Foundation, priority 2012, published 2015).

Assays:
[1] = O'Hare et al. 2005 Cancer Cell; cited from earlier work
[2] = tested on: drusen-associated protein transcripts; test: Reduced drusen expression: qPCR of drusen-associated protein transcripts in stressed RPE; type: cell-based, human; details: FIG. 4
Procedure: RNA is isolated from the RPE cells at the end of the 24 hour rest period, according to the protocol in the Qiagen RNeasy Micro/Mini Kits. Once isolated, the RNA is converted into cDNA using a high-capacity RNA to cDNA conversion kit (Applied Biosystems). The resulting cDNA is then used in a qPCR assay, to quantitate expression of various drusen-associated genes, including genes encoding: αA-crystallin, αB-crystallin, βB1-crystallin, βB2-crystallin, βs-crystallin, αA4-crystallin, APP, APOE, APOJ, BACE-1, PS1, VEGF, VEGF R1, VEGF R2, PEDF, CC9, serum amyloid P, TIMP3, vitronectin, and H2AE. The expression level of one or more housekeeping genes, such as ribosomal S18 and GAPDH, is also quantitated. Forward and reverse PCR primers having the nucleotide sequences shown in Table 2, below, may be used with a SYBR green reporter from Applied Biosystems.

RPESC-derived RPE cells [3] = test: Restored resistance: transepithelial resistance of RPESC-derived RPE after oxidative stress; type: cell-based, human; details: oxidative stress by TBHP; FIG. 3
Text: The ability of a test substance to restore transepithelial resistance may also be determined in the RPE cell-based assay. RPE cells are a tight junctioned epithelia and compromised epithelial integrity is a hallmark of RPE-associated diseases, such as, e.g., dry AMD.
Restored resistance. Healthy RPE form tight functioned epithelia layers with high electrical resistance. Compromising the integrity of these layers decreases the resistance and is indicative of a diseased state, such as dry or other forms of AMD.
Preferably, each well of primary human RPE cells has a resistance greater than 200 Ω·cm^2 before beginning the experiment. Resistance of RPE treated with a test compound is measured again, after oxidative stress, and compared to the resistance in untreated RPE subjected to the same oxidative stress procedure.

RPESC-derived RPE cells [4] = test: Restored viability: LDH cytotoxicity assay in stressed RPESC-derived RPE

## Cc1cn(-c2cc(NC(=O)c3ccc(C)c(Nc4nccc(-c5cccnc5)n4)c3)cc(C(F)(F)F)c2)cn1 [AMN107]
[1]
  potency relative to imatinib mesylate: 20 fold

## COc1cc(Nc2c(C#N)cnc3cc(OCCCN4CCN(C)CC4)c(OC)cc23)c(Cl)cc1Cl [Bosutinib]
[2]
  effect on TBHP-induced up-regulation of drusen-associated protein transcripts: attenuates TBHP-induced up-regulation of drusen-associated protein transcripts

## Cc1ccc(NC(=O)c2ccc(CN3CCN(C)CC3)cc2)cc1Nc1nccc(-c2cccnc2)n1 [Gleevec, 4-[(4-methylpiperazin-1-yl)methyl]-N-(4-methyl-3-{[4-(pyridin-3-yl)pyrimidin-2-yl]amino}phenyl)benzamide]
RPESC-derived RPE cells [3]
  effect on decrease in transepithelial resistance after oxidative stress: attenuate the decrease in transepithelial resistance
[2]
  effect on TBHP-induced up-regulation of drusen-associated protein transcripts: attenuates TBHP-induced up-regulation of drusen-associated protein transcripts
RPESC-derived RPE cells [4]; 1 µM
  cells viability restored compared to untreated controls: 100%
RPESC-derived RPE cells [4]; 1 μM, 100% cell death in untreated controls
  cell death in treated cells: 0%

## Ponatinib
RPESC-derived RPE cells [4]; 500 nM
  reduction in cell death compared to the cell lysis control: about 80%
RPESC-derived RPE cells [4]; 1 μM, FIG. 2
  effect on cytotoxicity: no effect on cytotoxicity
